Legend:
[1] = biological target: T1, BLM-RAD54 interaction (BLM F2 and N-RAD54 F1) (Homo sapiens, UniProt Q92698); assay: Renilla luciferase-based protein complementation assay (PCA); assay type: cell-based; settings: disruption of BLM F2 / N-RAD54 F1 interaction, HEK293T cells, 1 nM to 100 μM; read-out: EC50
T1 construct: expressed in transfected cells; host or cells: HEK293T
T1 sequence (Q92698 1-212): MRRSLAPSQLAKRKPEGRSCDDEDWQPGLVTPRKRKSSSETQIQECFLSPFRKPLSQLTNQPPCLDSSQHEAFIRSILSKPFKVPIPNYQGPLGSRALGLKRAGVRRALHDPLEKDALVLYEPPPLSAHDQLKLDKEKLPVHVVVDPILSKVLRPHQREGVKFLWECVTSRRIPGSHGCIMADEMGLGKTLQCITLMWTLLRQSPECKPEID
Description: Specifically, N-RAD54-F1, C-RAD54-F1, BLM-F1 and BLM-F2 were transfected in HEK293T. Forty-eight hours post-transfection, Renilla luciferase-based PCA were carried out with the indicated combination of the expressed proteins. The experiment was repeated three times. Mean±S.D.
Using the Renilla luciferase-based protein complementation assay described earlier, 1280 FDA/EMA approved small molecules present in Prestwick chemical library were screened for their ability to disrupt BLM-RAD54 interaction. Each of the small molecules was incubated with HEK293T cells expressing BLM-F2 and N-RAD54-F1. Compared to cells expressing only BLM-F2 and N-RAD54-F1, the decrease in Renilla luciferase intensity in presence of each small molecule was monitored. Percentage disruption of the interaction between BLM F2 and N-RAD54 F1 was plotted in form of heatmap. The disruption of the BLM-RAD54 interaction was determined by a decrease in the Renilla luciferase activity as compared to control untreated cells.
The percentage disruption of the interaction between BLM F2 and N-RAD54 F1 was plotted as a non-linear regression line. The data was from three independent experiments.
Renilla Luciferase (Rlu) based Protein complementation assay was carried out as described in (Stefan et al., 2007). For preliminary screening of the Prestwick Chemical Library (containing 1280 FDA/EMA approved small molecules), HEK293T cells were seeded in the 6-well plates a day prior to the transfection. Next day the cells were transfected by 2 μg each of pcDNA3.1 N-RAD54 F1, pcDNA3.1 C-RAD54 F1, pcDNA3.1 BLM F1, pcDNA3.1 BLM F2 plasmids (alone or in different combinations) using Lipofectamine 2000 (according to the manufacturer's protocol). 36 hours post-transfection, approximately […] cells were seeded in a 96-well plate and incubated at 37° C. for 2 hour with or without 10 μM of the 1280 small molecules present in the library. 10 μM of Coenleterazine h was added into each well and Rluc activity was monitored for the first 10 seconds in Varioskan Microplate Reader (Thermo Fisher Scientific). The validation screen was performed with 17 small molecules at 100 μM, 10 μM, 1 μM, 100 nM, 10 nM and 1 nM concentrations. The percentage reduction in the protein-protein interaction was then calculated as compared to the control wells (without any small molecule).

RAD54 ATPase activity = biological target: T2, RAD54 ATPase activity (Homo sapiens, UniProt Q92698); assay: ATPase assay; assay type: biochemical; settings: 10 μM compound
T2 construct: made in house; host or cells: E. coli BL-21 DE3
T2 sequence (Q92698 1-747): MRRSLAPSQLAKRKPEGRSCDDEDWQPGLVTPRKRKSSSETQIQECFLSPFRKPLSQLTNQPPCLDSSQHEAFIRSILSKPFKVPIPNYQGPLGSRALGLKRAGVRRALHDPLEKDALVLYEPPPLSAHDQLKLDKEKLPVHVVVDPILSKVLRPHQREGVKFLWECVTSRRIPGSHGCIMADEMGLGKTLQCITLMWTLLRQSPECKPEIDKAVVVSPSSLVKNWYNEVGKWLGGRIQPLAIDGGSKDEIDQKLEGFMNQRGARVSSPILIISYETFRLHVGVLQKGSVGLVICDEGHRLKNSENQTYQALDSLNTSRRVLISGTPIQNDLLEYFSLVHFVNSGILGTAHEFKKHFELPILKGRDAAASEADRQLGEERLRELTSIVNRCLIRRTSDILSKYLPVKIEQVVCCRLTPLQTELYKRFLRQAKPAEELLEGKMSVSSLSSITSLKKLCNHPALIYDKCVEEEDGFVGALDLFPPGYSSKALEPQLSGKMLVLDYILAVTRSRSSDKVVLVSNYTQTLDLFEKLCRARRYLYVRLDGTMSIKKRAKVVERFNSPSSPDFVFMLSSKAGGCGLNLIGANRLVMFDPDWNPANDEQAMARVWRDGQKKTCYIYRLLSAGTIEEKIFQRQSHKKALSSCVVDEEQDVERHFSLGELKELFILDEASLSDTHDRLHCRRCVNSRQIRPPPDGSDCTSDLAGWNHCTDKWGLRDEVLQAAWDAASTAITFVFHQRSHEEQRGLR
Description: The data is from three independent experiments. Mean±S.D.
(§1) The presence of the disruptors also led to a decrease in the ATP binding to RAD54.
Assay for RAD54 ATPase activity was carried out as per the previously published protocol (Srivastava et al., 2009). His-RAD54 (120 nM) was incubated with the GST-BLM (1-212) or BLM_peptide or SCM_peptide (180 nM). […] 1 μl of the sample was spotted on the polyethyleneimine-coated TLC plate, resolved in 1M Formic Acid and 0.3M LiCl. The products of ATP hydrolysis were then visualized by Phosphoimager scans taken in Typhoon™ laser-scanner platform (Cytiva) and quantitated using the inbuilt software.

RAD54 = biological target: T3, RAD54 (Homo sapiens, UniProt Q92698); assay: ATP binding assay; assay type: biochemical; settings: 10 μM compound
T3 construct: GST RAD54 (1-747) (WT); made in house; host or cells: E. coli BL-21 DE3
T3 sequence (Q92698 1-747): T2 sequence (Q92698 1-747)
Description: The quantitation of the ATP binding assay was carried out using RAD54 WT, RAD54 WT+BLM_peptide, and RAD54 WT+SCM_peptide. The data is from three independent experiments. Mean±S.D.
as §1
A 20 μl reaction was set up with 120 nM of GST-RAD54 and 180 nM of either BLM_peptide or SCM_peptide or BLM (1-212) using 4 μl of 5×ATP binding assay buffer (100 mM Tris-Cl pH 7.5, 50 mM MgCl2, 10 mM MnCl2, 5 mM DTT) and 5 μCi of [γ^32P]dATP. […] Reactions were incubated at 30° C. for 20 minutes and were stopped with 10% TCA and samples were spotted on P81 phosphocellulose paper followed by washing of paper strips with 75 mM orthophosphoric acid. A minimum of 8 washes were given in 20 hrs of 1 hr each including a 12 hr wash. Following this, strips were dehydrated in ethanol for 10 min followed by liquid scintillation counting. Reactions without the substrate were spotted as control and the same process repeated.

Row | SMILES | EC50 [1] | BLM dependent enhancement of ATPase activity of RAD54 (ATP hydrolysis) (RAD54 ATPase activity) | BLM dependent enhancement of ATP binding by RAD54 (RAD54)
1 | CN1CCN(C2=Nc3ccccc3Oc3ccc(Cl)cc32)CC1.O=C(O)CCC(=O)O [C17, Loxapine succinate] | 22.9 ± 4.25 nM | reduced the extent of ATP hydrolysis | decreased BLM dependent enhancement of the binding of ATP by RAD54
2 | CC(=O)Nc1nnc(S(N)(=O)=O)s1 [C3, Acetazolamide] | 4.2 ± 0.198 nM | reduced the extent of ATP hydrolysis | decreased BLM dependent enhancement of the binding of ATP by RAD54
3 | OCCN(CCO)c1nc(N2CCCCC2)c2nc(N(CCO)CCO)nc(N3CCCCC3)c2n1 [C7, Dipyridamole] | 6.16 ± 0.297 nM | reduced the extent of ATP hydrolysis | decreased BLM dependent enhancement of the binding of ATP by RAD54

Reference: patent US20240180881A1, “METHODS FOR DECREASING RESISTANCE TO CHEMOTHERAPY” (National Institute of Immunology, priority 2022, published 2024)
